Assay results: paper PMC2866477, “Anticancer Effect and Structure-Activity Analysis of Marine Products Isolated from Metabolites of Mangrove Fungi in the South China Sea” (Marine Drugs, 2010)
Read-outs that look alike come from different tables or passages of the source.

Experiments:
KB cells = experiment: MTT cytotoxicity assay, KB cells; format: cell-based; settings: Homo sapiens, 72 h treatment, KB oral epidermoid carcinoma cells
Method: (§1) The cell lines were cultured in DMEM or RPMI 1640 containing 10% fetal bovine serum at 37 °C in the presence of 5% CO2. The cell lines were the oral epidermoid carcinoma cell lines KB and its vincristine-selected ABCB1-overexpressing KBv200 [10]; the breast carcinoma cell lines MCF-7 and its doxorubicin-selected ABCB1-overexpressing MCF-7/adr; the lung carcinoma cell line A549 and normal liver cell line LO2.
(§2) The MTT assay was used to evaluate the cytotoxicity of a number of compounds previously isolated from mangrove-derived fungi as described. Briefly, 3–4 × 10^3 cells were incubated in 96-well plates and allowed to attach overnight before compounds at full range concentrations were added. The concentrations were chosen so that the highest concentration killed most of the cells and the lowest killed none of the cells. After 72 h treatment, 0.5 mg/ml MTT was added to each well for an additional 4 h. Subsequently, the supernatant was removed, and the purple MTT-formazan crystals were dissolved by DMSO. Finally, absorbance was recorded at 540 nm with 655 nm as a reference filter using a Model 550 Microplate Reader (Bio-Rad, USA). Experiments were performed at least three times. The standard chemotherapeutic agent doxorubicin was used as a positive control in MTT assay and normal liver cell line LO2 was used to show whether cytotoxic activity was tumor-specific. The concentrations required to inhibit growth by 50% (IC50) were calculated from survival curves using the Bliss method.

KBv200 cells = experiment: MTT cytotoxicity assay, KBv200 cells; format: cell-based; settings: Homo sapiens, 72 h treatment, vincristine-selected ABCB1-overexpressing KBv200 cells
Method: as §1, §2

MCF-7 cells = experiment: MTT cytotoxicity assay, MCF-7 cells; format: cell-based; settings: Homo sapiens, MCF7, 72 h treatment, MCF-7 breast carcinoma cells
Method: as §1, §2

MCF-7/adr cells = experiment: MTT cytotoxicity assay, MCF-7/adr cells; format: cell-based; settings: Homo sapiens, NCI/ADR-RES, 72 h treatment, doxorubicin-selected ABCB1-overexpressing MCF-7/adr cells
Method: as §1, §2

A549 cells = experiment: MTT cytotoxicity assay, A549 cells; format: cell-based; settings: Homo sapiens, 72 h treatment, A549 lung carcinoma cells
Method: as §1, §2

normal liver LO2 cells = experiment: MTT cytotoxicity assay, normal liver LO2 cells; format: cell-based; settings: for IC50: Homo sapiens, L02, 72 h treatment; for IC50 / growth inhibitory activity in LO2 cells (in words): normal liver LO2 cells; for sensitivity of cancer cells compared with normal liver LO2 cells: cancer cells versus LO2 cells
Method: as §1, §2

pcDNA3.1(+) DNA = experiment: DNA binding assay (agarose gel electrophoresis); settings: 10, 100 or 200 μmol/L with 1 μg pcDNA3.1(+), 37 °C, 3 h; 1% agarose gel
Method: 10, 100 or 200 μmol/L compounds were incubated with 1 μg pcDNA3.1(+) at 37 °C for 3 h. The mixtures were then subjected to electrophoresis on a 1% agarose gel, pre-stained with 0.5 μg/ml ethidium bromide, at 60 V for 40 min. Doxorubicin (DOX) was used as a positive control.

[1] = test system: KB, KBv200, MCF-7, MCF-7/adr, and A549 cells; experiment: MTT anticancer screen, cancer cell panel; format: cell-based, human; settings: for IC50: Homo sapiens, MTT; for IC50 values in MDR cells compared with parental sensitive cells: KBv200, MCF-7/adr versus KB, MCF-7
Method: as §1, §2

[2] = KB, KBv200, MCF-7, MCF-7/adr, and A549 cells, read-out: IC50 values (potent cytotoxic activity)
[3] = cancer cells, cell lines not given, read-out: IC50 (cytotoxic activity)

| SMILES | IC50 (KB cells) | IC50 (KBv200 cells) | IC50 (MCF-7 cells) | IC50 (MCF-7/adr cells) | IC50 (A549 cells) | IC50 (normal liver LO2 cells) | sensitivity of cancer cells compared with normal liver LO2 cells (normal liver LO2 cells) | DNA intercalation / binding to DNA (pcDNA3.1(+) DNA) | IC50 [1, 2] | growth inhibitory activity in LO2 cells (in words) (normal liver LO2 cells) | IC50 values in MDR cells compared with parental sensitive cells [1] | cytotoxic / anticancer activity (in words) ([1]; MTT assay in vitro) | IC50 [1, 3] |
| --- | --- | --- | --- | --- | --- | --- | --- | --- | --- | --- | --- | --- | --- |
| Cc1c(CO)cc([N+](=O)[O-])cc1CO [Compound 1] | 1.57 ± 0.08 µM | 2.67 ± 0.17 µM | 1.38 ± 0.07 µM | 2.34 ± 0.11 µM | 2.71 ± 0.15 µM | 6.59 ± 0.44 µM | more sensitive | none of the compounds investigated here showed binding to DNA | < 50 µM |  |  |  |  |
| Cc1c(O)cc(O)c(C(=O)O)c1C [Compound 4] | 1.15 ± 0.06 µM | 6.74 ± 0.38 µM | 11.7 ± 0.86 µM | 35.7 ± 2.08 µM | 17.1 ± 1.03 µM | 16.5 ± 1.22 µM |  | none of the compounds investigated here showed binding to DNA | < 50 µM | exhibited growth inhibitory activity in LO2 cells |  |  |  |
| O=c1c2c(O)ccc(O)c2oc2c3c(cc(O)c12)OC1OCCC31 (stereo not shown) [Compound 7] | 0.03 ± 0.001 µM | 9.08 ± 0.65 µM | 0.17 ± 0.01 µM | 31.6 ± 1.83 µM | 16.5 ± 0.88 µM | 47.4 ± 2.04 µM |  |  | < 50 µM |  | much higher IC50 values |  |  |
| O=c1c2ccccc2oc2c3c(cc(O)c12)OC1OCCC31 (stereo not shown) [Compound 8] | 0.71 ± 0.03 µM | 17.2 ± 0.96 µM | 2.53 ± 0.14 µM | 9.37 ± 0.42 µM | > 50 µM | > 50 µM |  |  | < 50 µM |  |  |  |  |
| COc1c2c(cc3oc4cccc(O)c4c(=O)c13)C1C=COC1O2 (stereo not shown) [Compound 9] | 0.94 ± 0.01 µM | 48 ± 3.41 µM | 1.43 ± 0.09 µM | 31.6 ± 1.36 µM | > 50 µM | > 50 µM |  |  | < 50 µM |  | much higher IC50 values |  |  |
| CCOC(=O)COc1cc(C)cc2c1C(=O)c1c(O)cccc1C2=O [Compound 11] | 5.89 ± 0.37 µM | 18.9 ± 1.2 µM | 13.2 ± 0.84 µM | 35.3 ± 2.77 µM | 21.3 ± 1.6 µM | 28.9 ± 1.46 µM |  | none of the compounds investigated here showed binding to DNA | < 50 µM | exhibited growth inhibitory activity in LO2 cells |  |  |  |
| C=C/C=C/COc1cccc2c1C(=O)c1c(O)cccc1C2=O [Compound 13] | 21 ± 1.35 µM | > 50 µM | 16.3 ± 0.71 µM | > 50 µM | 31.2 ± 2.02 µM | > 50 µM |  | none of the compounds investigated here showed binding to DNA | < 50 µM |  | much higher IC50 values |  |  |
| C#CCOc1cc(C)cc2c1C(=O)c1c(O)cccc1C2=O [Compound 14] | 11.9 ± 0.69 µM | > 50 µM | 35.2 ± 1.87 µM | > 50 µM | 23.5 ± 1.32 µM | 37.5 ± 1.64 µM |  | none of the compounds investigated here showed binding to DNA | < 50 µM |  | much higher IC50 values |  |  |
| O=C1c2cc(O)cc(O)c2C(=O)c2c1cc1c(c2O)C2CCCC(O1)O2 (stereo not shown) [Compound 18] | 28.2 ± 1.66 µM | 44.6 ± 2.57 µM | 17.2 ± 0.95 µM | 25 ± 1.06 µM | 33.9 ± 2.31 µM | > 50 µM | more sensitive | none of the compounds investigated here showed binding to DNA | < 50 µM |  |  |  |  |
| O=C1c2ccc(O)cc2OCC1c1ccc(O)cc1 (stereo not shown) [Compound 78] | 8.63 ± 0.57 µM | 9.37 ± 0.61 µM | 19.8 ± 0.89 µM | 24.9 ± 1.15 µM | 14.9 ± 0.64 µM | 33.6 ± 2.06 µM | more sensitive | none of the compounds investigated here showed binding to DNA | < 50 µM |  |  | exhibited a cytotoxicity targeted to cancer cells |  |
| CC1OC(O[C@@H]2C(=O)c3c(O)cccc3OC2c2ccc(O)cc2)C(O)C(O)C1O (stereo partly shown) [Compound 79] | > 50 µM | > 50 µM | > 50 µM | > 50 µM | > 50 µM | > 50 µM |  |  |  |  |  |  | > 50 µM |
| CC1OC(O[C@H]2C(=O)c3c(O)cccc3OC2c2ccc(O)cc2)C(O)C(O)C1O (stereo partly shown) [Compound 80] | > 50 µM | > 50 µM | > 50 µM | > 50 µM | > 50 µM | > 50 µM |  |  |  |  |  |  | > 50 µM |
| CC(=O)/C=C/C=C/C=C/C(=O)CC(=O)O [Compound 84] | > 50 µM | > 50 µM | > 50 µM | > 50 µM | > 50 µM | > 50 µM |  |  |  |  |  |  |  |
| COC(=O)/C=C/C=C/C=C/C=C(C)/C=C/C=C(\C)C(=O)O [Compound 85] | > 50 µM | > 50 µM | > 50 µM | > 50 µM | > 50 µM | > 50 µM |  |  |  |  |  |  |  |
| COc1cccc2c1C(=O)c1c(O)c3c(c(O)c1C2=O)C[C@@](O)(C(=O)CO)C[C@@H]3O[C@H]1C[C@H](N)[C@H](O)[C@H](C)O1 [Doxorubicin, reference compound] | 0.05 ± 0.003 µM | 3.21 ± 0.12 µM | 0.39 ± 0.02 µM | 22.3 ± 1.56 µM | 1.67 ± 0.09 µM | 0.11 ± 0.01 µM |  | effectively intercalated into DNA in a concentration-dependent manner |  |  | much higher IC50 values |  |  |
